Measured values: patent publication US20220257635A1, “INJECTABLE NUTRITIONAL SUPPLEMENT” (CHEMVET AUSTRALIA PTY LTD, priority 2019, published 2022)

Test: Stability storage of the Comparative Example 1 formulation at 5° C. and 40° C. (75% RH), vitamin B12 analysed
Assay type: physicochemical
Settings: in formulation of Table 2; for Vitamin B12 T = 1 month (mg/mL) 5° C.: 1 month at 5° C.; for Vitamin B12 T = 1 month (mg/mL) 40° C.: 1 month at 40° C. (75% RH); for Vitamin B12 T = 0 (mg/mL) 5° C.: T = 0, 5° C. sample; for Vitamin B12 T = 0 (mg/mL) 40° C.: T = 0, 40° C. (75% RH) sample
Experimental: To the formulation of Table 1, water-soluble disodium Copper EDTA and disodium Zinc EDTA, were successfully added at the rate of 107 g/L and 285 g/L respectively and then topped up with water to the required volume.
This formulation was sent to Chemical Analysis, and analysed at 0 time and placed on stability storage at 5° C. and 40° C. (75% RH).

Substance	Vitamin B12 T = 1 month (mg/mL) 5° C. [mg/mL]	Vitamin B12 T = 1 month (mg/mL) 40° C. [mg/mL]	Vitamin B12 T = 0 (mg/mL) 5° C. [mg/mL]	Vitamin B12 T = 0 (mg/mL) 40° C. [mg/mL]
Cyanocobalamin	0.23	0.14	0.24	0.24
Hydroxocobalamin Acetate	0.26	0.03	0.49	0.49
